Assay results as given in patent US20260263479A1, “KRAS G12D INHIBITORS AND USES THEREOF” (SUZHOU ZANRONG PHARMA LIMITED, priority 2023, published 2026).

Tested on: PANC-1 pERK
Experiment: Phospho-ERK 1/2 assay
Assay type: cell-based
Settings: Homo sapiens, PANC-1, 3 h, PANC-1 cells, 3 hours incubation with compound
Method: Allow PNAC-1 cell growth in a T75 flask in DMEM and 10% 1 fetal calf serum (FCS; Gibco®), using standard tissue culture procedures until ~80% confluency is achieved. Day 1, seed 6000 cells/well in 384 well plate and incubate at 37° C., 5% CO2. Add diluted compound by Echo 550, final DMSO is 0.5%, incubate cells at 37° C., 5% CO2 for 3 hours. Then, remove medium and fix cells with 3.7% formaldehyde in PBS (PFA) by Apricot. Wash with PBS once. Permeabilize cells with cold 100% methanol and repeat wash once with PBS once. Add Li-Cor blocking buffer to each well and incubate 1.5 hours at RT. Remove blocking buffer and add primary antibody mixture (rabbit anti pERK, mouse anti GAPDH). Incubate at 4° C. overnight. Day 2, wash with PBST (Tween-20 in PBS) with total 3 times and then add secondary antibody mixture (goat anti rabbit 800CW (1:800 dilution in the combined solution) and goat anti mouse 680RD (1:800 dilution in the combined solution)), incubate for 60 minutes at RT away from light. Repeat washing with PBST 3 times. After final wash, centrifuge plate up-side-down at 1000 rpm to remove wash solution completely from wells. Before plate scanning, clean the bottom plate surface and the Odyssey® Imager scanning bed (if applicable) with moist, lint-free tissue to avoid any obstructions during scanning. Scan plate with detection in both 700 and 800 nm channels.

| SMILES | IC50 [nM] |
| --- | --- |
| C#Cc1c(F)ccc2cccc(-c3nc4c5c(cc(OCC67CCCN6CC(=C)C7)nc5c3F)N3C[C@H]5CC[C@H](N5)[C@H]3[C@H](C)O4)c12 (some centres unmarked) [Example 572] | 14 |
| Cc1cc(N)nc(-c2nc3c4c(cc(OC[C@@]56CCCN5C[C@H](F)C6)nc4c2F)N2C[C@H]4CC[C@H](N4)[C@H]2[C@H](C)O3)c1C(F)(F)F [Example 574] | 33 |
| C#Cc1c(F)ccc2cccc(-c3nc4c5c(cc(OC[C@@]67CCCN6CC(=C)C7)nc5c3F)N3C[C@H]5CC[C@H](N5)[C@H]3CO4)c12 [Example 78, (5aS,6S,9R)-2-(8-ethynyl-7-fluoronaphthalen-1-yl)-1-fluoro-13-(((S)-2-methylenetetrahydro-1H-pyrrolizin-7a (5H)-yl)methoxy)-5a,6,7,8,9,10-hexahydro-5H-6,9-epiminoazepino[2′,1′: 3,4][1,4]oxazepino[5,6,7-de][1,6]naphthyridine] | 464 |
| CCc1c(F)ccc2cc(O)cc(-c3nc4c5c(cc(OC[C@@]67CCCN6C/C(=C\F)C7)nc5c3F)N3C[C@H]5CC[C@H](N5)[C@H]3[C@H](C)O4)c12 [Example 601] | 8.2 |
| C#Cc1c(F)ccc2cc(O)cc(-c3nc4c5c(cc(OC[C@@]67CCCN6C[C@H](F)C7)nc5c3F)N3C[C@@]5(C)CC[C@H](N5)[C@H]3[C@H](C)O4)c12 [Example 614] | 8.1 |
| C=C1CN2CCC[C@@]2(COc2cc3c4c(nc(-c5cc(O)cc6ccc(F)c(CC)c56)c(F)c4n2)OC[C@@H]2[C@@H]4CC[C@H](CN32)N4)C1 [Example 40, 5-ethyl-6-fluoro-4-((5aS,6S,9R)-1-fluoro-13-(((S)-2-methylenetetrahydro-1H-pyrrolizin-7a (5H)-yl)methoxy)-5a,6,7,8,9,10-hexahydro-5H-6,9-epiminoazepino[2′,1′: 3,4][1,4]oxazepino[5,6,7-de][1,6]naphthyridin-2-yl)naphthalen-2-ol] | 16 |
| C#Cc1c(F)ccc2cc(O)cc(-c3nc4c5c(cc(OCC67CCCN6CC(=C)C7)nc5c3F)N3C[C@H]5CC[C@H](N5)[C@H]3[C@H](C)O4)c12 (some centres unmarked) [Example 566] | 2.9 |
| C#Cc1c(F)ccc2cccc(-c3nc4c5c(cc(OC[C@@]67CC(=C)CN6C[C@H](OC)C7)nc5c3F)N3C[C@H]5CC[C@H](N5)[C@H]3[C@H](C)O4)c12 [Example 609] | 9.6 |
| C#Cc1c(F)ccc2cc(O)cc(-c3nc4c5c(cc(OC[C@@]67CCCN6C[C@H](F)C7)nc5c3F)N3C[C@H]5CC[C@H](N5)[C@H]3[C@H](C)O4)c12 [Example 565, 5-ethynyl-6-fluoro-4-((5S,5aS,6S,9R)-1-fluoro-13-(((2R,7aS)-2-fluorotetrahydro-1H-pyrrolizin-7a (5H)-yl)methoxy)-5-methyl-5a,6,7,8,9,10-hexahydro-5H-6,9-epiminoazepino[2′,1′: 3,4][1,4]oxazepino[5,6,7-de][1,6]naphthyridin-2-yl)naphthalen-2-ol] | 1.2 |
| C#Cc1c(F)ccc2cccc(-c3nc4c5c(cc(OC[C@]67CC(=C)CN6C[C@@H](F)C7)nc5c3F)N3C[C@H]5CC[C@H](N5)[C@H]3[C@H](C)O4)c12 [Example 607] | 198 |
| C#Cc1c(F)ccc2cc(O)cc(-c3nc4c5c(cc(OC[C@@]67CCCN6CC(=C)C7)nc5c3F)N3C[C@H]5CC[C@H](N5)[C@H]3CO4)c12 [Example 2, 5-ethynyl-6-fluoro-4-((5aS,6S,9R)-1-fluoro-13-(((S)-2-methylenetetrahydro-1H-pyrrolizin-7a (5H)-yl)methoxy)-5a,6,7,8,9,10-hexahydro-5H-6,9-epiminoazepino[2′,1′: 3,4][1,4]oxazepino[5,6,7-de][1,6]naphthyridin-2-yl)naphthalen-2-ol] | 14 |
| C#Cc1c(F)ccc2cc(O)cc(-c3nc4c5c(cc(OCC67CC(=C)CN6CC(=C)C7)nc5c3F)N3C[C@H]5CC[C@H](N5)[C@H]3[C@H](C)O4)c12 [Example 567] | 0.95 |
| C=C1CN2CC(=C)CC2(COc2cc3c4c(nc(-c5cc(O)cc6ccc(F)c(CC)c56)c(F)c4n2)O[C@@H](C)[C@@H]2[C@@H]4CC[C@H](CN32)N4)C1 [Example 570] | 76 |
| C=C1CN2CCC[C@@]2(COc2cc3c4c(nc(-c5cccc6ccc(F)c(CC)c56)c(F)c4n2)O[C@@H](C)[C@@H]2[C@@H]4CC[C@H](CN32)N4)C1 [Example 606] | 246 |
| CCc1c(F)ccc2cc(O)cc(-c3nc4c5c(cc(OC[C@@]67CCCN6C[C@H](F)C7)nc5c3F)N3C[C@@]5(C)CC[C@H](N5)[C@H]3[C@H](C)O4)c12 [Example 615] | 25 |
| C#Cc1c(F)ccc2cccc(-c3nc4c5c(cc(OC[C@@]67CC(=C)CN6C[C@H](F)C7)nc5c3F)N3C[C@H]5CC[C@H](N5)[C@H]3[C@H](C)O4)c12 [Example 608] | 251 |
| Cc1cc(N)nc(-c2c(F)c3c4c(cc(OCC5(CN6CCOC[C@H]6C)CC5)nc4c2F)N2C[C@H]4CC[C@H](N4)[C@H]2[C@H](C)O3)c1C(F)(F)F [Example 613a] | 111 |
| C#Cc1c(F)ccc2cccc(-c3nc4c5c(cc(OC[C@@]67CCCN6CC6(CC6(F)F)C7)nc5c3F)N3C[C@H]5CC[C@H](N5)[C@H]3[C@H](C)O4)c12 (some centres unmarked) [Example 604] | 184 |
| CCc1c(F)ccc2cc(O)cc(-c3nc4c5c(cc(OC[C@@]67CCCN6C[C@H](F)C7)nc5c3F)N3C[C@H]5CC[C@H](N5)[C@H]3[C@H](C)O4)c12 [Example 568, 5-ethyl-6-fluoro-4-((5S,5aS,6S,9R)-1-fluoro-13-(((2R,7aS)-2-fluorotetrahydro-1H-pyrrolizin-7a (5H)-yl)methoxy)-5-methyl-5a,6,7,8,9,10-hexahydro-5H-6,9-epiminoazepino[2′,1′: 3,4][1,4]oxazepino[5,6,7-de][1,6]naphthyridin-2-yl)naphthalen-2-ol] | 5.6 |
| C#Cc1c(F)ccc2cccc(-c3nc4c5c(cc(OC[C@@]67CCCN6C[C@H](F)C7)nc5c3F)N3C[C@H]5CC[C@H](N5)[C@H]3[C@H](C)O4)c12 [Example 571] | 17 |
| C#Cc1c(F)ccc2cc(O)cc(-c3nc4c5c(cc(OC[C@@]67CCCN6C/C(=C\F)C7)nc5c3F)N3C[C@H]5CC[C@H](N5)[C@H]3[C@H](C)O4)c12 [Example 602] | 1.5 |
| C#Cc1c(F)ccc2cc(O)cc(-c3nc4c5c(cc(OCC67CC(=C)CN6CC(=C)C7)nc5c3F)N3C[C@H]5CC[C@H](N5)[C@H]3CO4)c12 [Example 4, 4-((5aS,6S,9R)-13-((2,6-dimethylenetetrahydro-1H-pyrrolizin-7a (5H)-yl)methoxy)-1-fluoro-5a,6,7,8,9,10-hexahydro-5H-6,9-epiminoazepino[2′,1′: 3,4][1,4]oxazepino[5,6,7-de][1,6]naphthyridin-2-yl)-5-ethynyl-6-fluoronaphthalen-2-ol] | 34 |
| C#Cc1c(F)ccc2cccc(-c3nc4c5c(cc(OCC6(CN7CCOC[C@H]7C)CC6)nc5c3F)N3C[C@H]5CC[C@H](N5)[C@H]3[C@H](C)O4)c12 [Example 611] | 14 |
| C=C1CN2CCCC2(COc2cc3c4c(nc(-c5cc(O)cc6ccc(F)c(CC)c56)c(F)c4n2)O[C@@H](C)[C@@H]2[C@@H]4CC[C@H](CN32)N4)C1 (some centres unmarked) [Example 569] | 1.7 |
| C#Cc1c(F)ccc2cccc(-c3nc4c5c(cc(OC[C@@]67CCCN6C/C(=C/F)C7)nc5c3F)N3C[C@H]5CC[C@H](N5)[C@H]3[C@H](C)O4)c12 [Example 603] | 48 |

Same assay, conditions: PANC-1 cells, 3 hours incubation with compound

| SMILES | IC50 [nM] |
| --- | --- |
| C#Cc1c(F)ccc2cc(O)cc(-c3c(F)c4c5c(cc(OC[C@@]67CCCN6C[C@H](F)C7)nc5c3F)N3C[C@H]5CC[C@H](N5)[C@H]3[C@H](C)O4)c12 (single isomer, unassigned) [Example 577b] | 23.1 |
| C=C1CN2CC(=C)CC2(COc2cc3c4c(nc(-c5cc(O)cc6ccc(F)c(CC)c56)c(F)c4n2)OC[C@@H]2[C@@H]4CC[C@H](CN32)N4)C1 [compound 42] | 169 |
| C#Cc1cccc2cccc(-c3nc4c5c(cc(OC[C@@]67CCCN6CC(=C)C7)nc5c3F)N3C[C@H]5CC[C@H](N5)[C@H]3[C@H](C)O4)c12 [Example 605] | 25 |
| C#Cc1c(F)ccc2cc(O)cc(-c3c(F)c4c5c(cc(OC[C@@]67CCCN6C[C@H](F)C7)nc5c3F)N3C[C@H]5CC[C@H](N5)[C@H]3[C@H](C)O4)c12 (single isomer, unassigned) [Example 577a] | 0.68 |

Target: T1, P-glycoprotein (Pgp) (Homo sapiens, UniProt P08183)
T1 construct: expressed in transfected cells; host or cells: MDCK-MDR1 cells
T1 sequence (P08183 whole entry): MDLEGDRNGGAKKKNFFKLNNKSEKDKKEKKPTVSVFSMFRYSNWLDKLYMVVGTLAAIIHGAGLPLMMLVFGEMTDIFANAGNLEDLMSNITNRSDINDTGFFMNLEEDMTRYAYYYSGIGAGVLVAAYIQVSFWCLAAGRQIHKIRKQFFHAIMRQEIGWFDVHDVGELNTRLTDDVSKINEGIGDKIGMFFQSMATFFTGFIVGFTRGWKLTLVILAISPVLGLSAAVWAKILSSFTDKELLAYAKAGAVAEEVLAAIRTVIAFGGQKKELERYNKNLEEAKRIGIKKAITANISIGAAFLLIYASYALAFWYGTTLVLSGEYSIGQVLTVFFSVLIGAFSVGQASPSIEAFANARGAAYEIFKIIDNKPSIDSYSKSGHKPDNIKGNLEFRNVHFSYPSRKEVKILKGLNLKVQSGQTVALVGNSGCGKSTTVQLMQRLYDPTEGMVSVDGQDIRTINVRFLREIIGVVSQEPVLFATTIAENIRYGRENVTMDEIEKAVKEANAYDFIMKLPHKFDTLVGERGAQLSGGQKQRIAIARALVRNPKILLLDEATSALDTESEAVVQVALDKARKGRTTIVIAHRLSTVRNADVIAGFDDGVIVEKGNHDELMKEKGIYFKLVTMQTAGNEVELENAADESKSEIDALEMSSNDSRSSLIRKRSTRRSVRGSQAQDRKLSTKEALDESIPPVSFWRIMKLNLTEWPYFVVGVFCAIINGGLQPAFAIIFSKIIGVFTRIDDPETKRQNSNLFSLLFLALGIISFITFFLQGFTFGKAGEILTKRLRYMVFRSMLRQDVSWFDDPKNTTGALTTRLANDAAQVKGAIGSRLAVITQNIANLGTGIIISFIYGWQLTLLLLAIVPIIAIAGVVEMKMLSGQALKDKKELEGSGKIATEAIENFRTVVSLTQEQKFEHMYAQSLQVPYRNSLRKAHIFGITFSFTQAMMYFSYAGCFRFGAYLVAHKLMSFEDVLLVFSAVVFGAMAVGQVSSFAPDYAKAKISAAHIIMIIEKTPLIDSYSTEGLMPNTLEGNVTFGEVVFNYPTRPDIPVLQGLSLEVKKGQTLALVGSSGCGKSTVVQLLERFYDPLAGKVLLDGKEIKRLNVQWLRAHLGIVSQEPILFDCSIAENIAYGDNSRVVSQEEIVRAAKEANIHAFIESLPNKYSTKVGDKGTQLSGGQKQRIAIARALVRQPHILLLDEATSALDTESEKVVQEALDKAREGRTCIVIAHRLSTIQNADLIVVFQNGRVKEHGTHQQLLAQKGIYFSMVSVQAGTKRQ
Experiment: MDCK-MDR1 Pgp assessment
Assay type: in vitro ADME
Settings: dog, MDCK-MDR1 cells, 37° C., read-out: Pgp Efflux Ratio (Pexact)
Method: Efflux transport mediated by P-glycoprotein (Pgp) was assessed by MDCK-MDR1 cells. The final concentrations of test compounds and control compound were at 1 μM. The multi-well insert plate was incubated at 37° C. for 2 hours. In order to reliably measure passive permeability coefficients, Pexact was reported, which automatically corrects for loss of compound.

| SMILES | efflux ratio at 2 h, 1 μM |
| --- | --- |
| C#Cc1c(F)ccc2cc(O)cc(-c3nc4c5c(cc(OCC67CCCN6CC(=C)C7)nc5c3F)N3C[C@H]5CC[C@H](N5)[C@H]3[C@H](C)O4)c12 (some centres unmarked) [Example 566] | 13 |
| C#Cc1c(F)ccc2cc(O)cc(-c3nc4c5c(cc(OC[C@@]67CCCN6C[C@H](F)C7)nc5c3F)N3C[C@H]5CC[C@H](N5)[C@H]3[C@H](C)O4)c12 [Example 565, 5-ethynyl-6-fluoro-4-((5S,5aS,6S,9R)-1-fluoro-13-(((2R,7aS)-2-fluorotetrahydro-1H-pyrrolizin-7a (5H)-yl)methoxy)-5-methyl-5a,6,7,8,9,10-hexahydro-5H-6,9-epiminoazepino[2′,1′: 3,4][1,4]oxazepino[5,6,7-de][1,6]naphthyridin-2-yl)naphthalen-2-ol] | 5.25 |
| C#Cc1c(F)ccc2cc(O)cc(-c3nc4c5c(cc(OC[C@@]67CCCN6CC(=C)C7)nc5c3F)N3C[C@H]5CC[C@H](N5)[C@H]3CO4)c12 [Example 2, 5-ethynyl-6-fluoro-4-((5aS,6S,9R)-1-fluoro-13-(((S)-2-methylenetetrahydro-1H-pyrrolizin-7a (5H)-yl)methoxy)-5a,6,7,8,9,10-hexahydro-5H-6,9-epiminoazepino[2′,1′: 3,4][1,4]oxazepino[5,6,7-de][1,6]naphthyridin-2-yl)naphthalen-2-ol] | 5.37 |
